The term AUC(0-t) denotes the area under the concentration-time curve up to a stated or last time point. A lower AUC(0-t) goes with less exposure. The term Cmax denotes the highest concentration seen after dosing. What is called Tmax is the time at which the peak concentration occurs.

Data set [1] can be described thus: In-vivo pharmacokinetic analysis (beagle), single oral administration. The note with it: dog, plasma, beagles, Docetaxel PO 50 mg/kg. The source says:
The compositions of Example 83 and Comparative Example 1 were single orally administered to beagles to obtain plasma drug concentration information. The results are shown in Tables 12 and 13 below and FIGS. 8 and 9.

Data set [2] is described as follows: in vivo. The note with it: rat, po, 50 mg/kg.
Method: The graphs of FIGS. 1, 3, 5, and 6 show the docetaxel concentrations in plasma over time in rats, which were measured by collecting blood at 0 hr, 0.25 hr, 0.5 hr, 1 hr, 2 hr, 4 hr, 6 hr, 8 hr, and 12 hr.

In the case of `CC(=O)O[C@@]12CO[C@@H]1C[C@H](O)[C@@]1(C)C(=O)[C@H](O)C3=C(C)[C@@H](OC(=O)[C@H](O)[C@@H](NC(=O)OC(C)(C)C)c4ccccc4)C[C@@](O)([C@@H](OC(=O)c4ccccc4)[C@H]21)C3(C)C` [Comparative Example 1, Docetaxel], in data set [1], the AUC(0-t) was found to be 1.86 ng·h/mL, the concentration peaked (Cmax) at 0.5 ng/mL and the Tmax was 3.5 h. Also, in data set [1] (0.25 h, mean n = 2), the concentration at 0.25 h is 0.239 ng/mL. In data set [1] (0.5 h, mean n = 2), the concentration at 0.5 h was determined as 0.219 ng/mL. Also, the concentration at 1 h in data set [1] (1 h, mean n = 2) was determined as 0.243 ng/mL. In addition, the concentration at 2 h in data set [1] (2 h, mean n = 2) was determined as 0.14 ng/mL. This molecule returned a concentration at 4 h in data set [1] (4 h, mean n = 2) of 0.621 ng/mL. In data set [1] (6 h, mean n = 2), this molecule returned a concentration at 6 h of 0.675 ng/mL. The molecule further displayed a concentration at 8 h in data set [1] (8 h, mean n = 2) of 0.222 ng/mL. Besides, in data set [2], the AUC(0-t) was 0.85 ng·h/mL, the Cmax stood at 0.12 ng/mL and the Tmax is 12 h.

The values are drawn from patent US20250235424A1, “PHARMACEUTICAL COMPOSITION CONTAINING DOCETAXEL OR PHARMACEUTICALLY ACCEPTABLE SALT THEREOF AND PREPARATION METHOD THEREFOR” (WEBIOTREE CO., LTD, priority 2022, published 2025).
